From patent US10800807B2, “TGR5 modulators and methods of use thereof” (Intercept Pharmaceuticals, Inc., priority 2015, dated 2020)
Residue numbers refer to the chain shown, from its start. Values after ≈ are worked out from the molar mass of the structure shown. Like-named read-outs stand apart in the source and are kept apart here.

How the values were obtained:
Water solubility = format: physicochemical; conditions: simulated gastric fluid, thermodynamic from solid, 0.1 M HCl, pH 1.00, 25° C., read-out: Ws
Method: BA were suspended in 100 ml of 0.1 M HCl, pH 1.00, and the saturated solutions were transferred to a thermostat-equipped water bath maintained at 25° C. After incubation for 1 week, the solutions were filtered on a Millipore filter ([…]), and the concentration of BA was measured by HPLC-ESMS/MS as reported below.

[1] = Critical micellar concentration (surface tension / dye solubilization); format: physicochemical; conditions: BA sodium salts in 0.1 M NaCl, 25° C.
Method: In the first method, the surface tension was performed by maximum bubble-pressure method using a Sensadyne 6000 tensiometer (Chem-Dyne Research Corp., Milwaukee, Wis.). The surface tension of aqueous solutions at various concentrations (range 0.1-100 mM) of the BA sodium salts in 0.1 M NaCl was measured at 25° C. The surface tension values were plotted against the logarithm of the bile salt concentration; the regression lines corresponding to the two parts of the curve (monomeric and micellar phases) were calculated using the method of least squares. The critical micellar concentration (CMC) value (mM) was obtained by the intersection of the two lines.
The second method is based on the fact that some dyes, specifically Orange OT ([…]), are almost insoluble in water but dissolve in solutions with micellar aggregates that incorporate them; thus, the intensity of color of the solution increases with bile salt concentration (after CMC achievement). The amount of dye solubilized in relation to bile salt concentration was determined spectrophotometrically.
For each bile acid, various solution at different concentrations, between 50 mM and 0.1 mM with appropriate dilutions, were incubated under stirring at room temperature for 3 days with an excess of Orange OT. Then all the solutions were centrifuged and filtered through a 0.22 μm Millipore fiiter (Millipore Corp., Bedford, Mass.).

[2] = Lipophilicity, 1-octanol/water partition coefficient (shake-flask); format: physicochemical; conditions: pH 8.00, ionized BA
Method: The experiments were carried out on 1 mM initial bile salt solution buffered at pH 8.00 with 0.1 M potassium phosphate buffer to ensure complete ionization of the BA. BA concentration in the water phase before and after partition in 1-octanol was measured by HPLC-ESMS/MS as reported below.

bovine serum albumin = bovine serum albumin (Bos taurus, UniProt P02769); experiment: Albumin binding by equilibrium dialysis; format: in vitro ADME; conditions: 5% bovine serum albumin saline solution, 25° C.
Sequence of bovine serum albumin (P02769 25-607): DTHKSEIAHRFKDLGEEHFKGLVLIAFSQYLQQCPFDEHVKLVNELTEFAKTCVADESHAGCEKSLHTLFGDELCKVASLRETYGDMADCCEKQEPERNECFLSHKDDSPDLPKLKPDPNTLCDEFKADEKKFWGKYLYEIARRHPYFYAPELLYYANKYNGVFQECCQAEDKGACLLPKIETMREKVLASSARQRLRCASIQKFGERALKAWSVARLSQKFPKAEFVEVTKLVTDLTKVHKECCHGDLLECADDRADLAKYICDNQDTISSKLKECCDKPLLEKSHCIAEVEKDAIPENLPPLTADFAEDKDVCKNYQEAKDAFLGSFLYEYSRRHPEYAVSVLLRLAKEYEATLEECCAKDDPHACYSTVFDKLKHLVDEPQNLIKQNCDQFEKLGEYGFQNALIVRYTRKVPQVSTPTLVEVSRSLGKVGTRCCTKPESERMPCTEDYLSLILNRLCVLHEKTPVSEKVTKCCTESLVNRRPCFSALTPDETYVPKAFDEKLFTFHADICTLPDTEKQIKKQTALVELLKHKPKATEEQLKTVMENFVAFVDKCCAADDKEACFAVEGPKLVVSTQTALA
Method: BA was dissolved at a concentration of […] in 5% bovine serum albumin saline solution and left to stand for 24 hours at 25° C. Two milliliters of this solution was dialyzed in cellulose sacs with a molecular weight cut-off of 12-14 kDa (Spectra/Por; Spectrum Medical Industries Inc., Rancho Dominguez, Calif.) against 25 ml of saline solution. The system was equilibrated by mechanical shaking for 72 hours at 25° C. BA concentrations in the starting solution and in the dialyzed solution were determined by HPLC-ES-MS/MS as reported below.

mTGR5 = target: T1, mTGR5 (Mus musculus, UniProt Q80SS6); experiment: TGR5 activity: cAMP in mTGR5 CHO-Pi10 clone 4 cells; format: cell-based; conditions: for Emax: 0.5 h, read-out: (mTGR5 CHO) Efficacy
T1 construct: expressed in transfected cells; host or cells: CHO-Pi10 clone 4
T1 sequence (Q80SS6 1-329): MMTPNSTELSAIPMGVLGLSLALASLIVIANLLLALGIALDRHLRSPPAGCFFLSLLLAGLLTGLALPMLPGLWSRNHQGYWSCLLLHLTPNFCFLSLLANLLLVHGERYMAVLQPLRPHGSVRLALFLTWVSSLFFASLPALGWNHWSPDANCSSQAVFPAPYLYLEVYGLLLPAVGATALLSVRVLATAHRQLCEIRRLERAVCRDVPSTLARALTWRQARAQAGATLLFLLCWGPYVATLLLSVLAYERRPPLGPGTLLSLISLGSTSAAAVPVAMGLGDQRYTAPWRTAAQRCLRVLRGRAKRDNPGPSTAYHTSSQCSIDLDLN

[3] = target: T2, human glutathione transferase-tagged FXR-LBD (Homo sapiens, UniProt Q96RI1); experiment: FXR AlphaScreen coactivator recruitment assay (human); format: biochemical; design: Emax: dose or concentration left out as unconfirmed; conditions: for EC50: human FXR-LBD, AlphaScreen, read-out: hFXR EC50; for Emax: read-out: hFXR Efficacy;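 for hFXR Efficacy: CDCA at 50 µM taken as 100%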
T2 construct: human glutathione transferase-tagged FXR-LBD (Life Technologies, USA); purchased Life Technologies, USA
T2 sequence (Q96RI1 262-486 limits assumed): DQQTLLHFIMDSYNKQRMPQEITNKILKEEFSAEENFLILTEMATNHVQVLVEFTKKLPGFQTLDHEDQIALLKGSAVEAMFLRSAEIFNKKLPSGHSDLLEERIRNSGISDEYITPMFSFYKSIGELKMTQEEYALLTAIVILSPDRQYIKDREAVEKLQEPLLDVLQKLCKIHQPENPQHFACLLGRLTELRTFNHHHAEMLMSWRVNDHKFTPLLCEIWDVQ

[4] = target: T3, mouse glutathione transferase-tagged FXR-LBD (Mus musculus, UniProt Q60641); experiment: FXR AlphaScreen coactivator recruitment assay (mouse); format: biochemical; conditions: for EC50: read-out: (mFXR) EC50; for Emax: read-out: (mFXR) Efficacy
T3 construct: mouse glutathione transferase-tagged FXR-LBD (generated in-house); made in house
T3 sequence (Q60641 264-488 limits assumed): T2 sequence (Q96RI1 262-486 limits assumed) with H7D, F8Y, N46S, V50I, S95A, S98A, N107K, I125V, I174M, H175Y

[5] = Critical micellar concentration (surface tension / dye solubilization); format: physicochemical
TGR5 [6] = target: T4, TGR5 (Homo sapiens, UniProt Q8TDU6); experiment: TGR5 activity: intracellular cAMP levels, NCI-H716 cells (HTR-FRET); format: cell-based; design: endogenous in cells; host or cells: NCI-H716; conditions: for Emax: read-out: TGR5 (NCI-H716) Efficacy; for EC50: cAMP
T4 sequence (Q8TDU6 1-330): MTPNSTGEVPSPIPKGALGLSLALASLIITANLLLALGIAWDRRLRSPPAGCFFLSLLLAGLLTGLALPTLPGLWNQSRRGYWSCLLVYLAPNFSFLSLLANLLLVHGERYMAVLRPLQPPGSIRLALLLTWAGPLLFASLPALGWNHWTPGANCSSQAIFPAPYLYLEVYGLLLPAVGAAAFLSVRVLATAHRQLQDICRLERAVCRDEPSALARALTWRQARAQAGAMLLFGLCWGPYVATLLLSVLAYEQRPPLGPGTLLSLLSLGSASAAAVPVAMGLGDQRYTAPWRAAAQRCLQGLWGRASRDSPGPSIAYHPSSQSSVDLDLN
Method: Activation of TGR5 was assessed by measuring the level of cAMP using an HTR-FRET assay. Thus, NCI-H716 cells were cultured on 96-well plates coated with Matrigel (Corning, USA) (0.75 mg/ml) in DMEM supplemented with 10% FCS, 100 units/ml penicillin, and 100 μg/ml streptomycin sulphate. […] The level of intracellular cAMP was determined with Lance kit. Z′ factor was used to validate assays.

TGR5 [7] = target: T4, TGR5; experiment: TGR5 activity: cAMP in hTGR5 CHO-k1 cells; format: cell-based; design: expressed in transfected cells; host or cells: CHO-k1; conditions: for Emax: 0.5 h, read-out: hTGR5 CHO Efficacy; for EC50: cAMP
[8] = mTGR5 CHO cells, value in parentheses
[9] = mouse FXR-LBD, value in parentheses
[10] = 1 h, NCI-H716 cells, Ref. LCA 100% at 10 μM
[11] = hTGR5 CHO cells, Ref. LCA 100% at 10 μM

Row | SMILES | solubility thermodynamic at 1 week (Water solubility) | CMC [1] | LogPA− [2] | Albumin binding (%) (bovine serum albumin) | Emax (mTGR5; [8]) | EC50 (mTGR5; [8]) | EC50 [3] | Emax [3] | EC50 [4, 9] | Emax [4, 9] | pKa (pKa) | CMpH [5] | Emax (TGR5 [6]; [10]) | EC50 (TGR5 [6]; NCI-H716 cells) | Emax (TGR5 [7]; [11]) | EC50 (TGR5 [7]; hTGR5 CHO cells) | further results
1 | CC[C@H]1[C@@H](O)C2C3CC[C@H]([C@H](C)C(F)(F)C(=O)O)[C@@]3(C)CCC2[C@@]2(C)CC[C@@H](O)C[C@@H]12 (stereo partly shown) (hydrate or solvate) |  |  |  |  |  |  |  |  |  |  |  |  |  |  |  |  | melting point: 254 to 256 °C
2 | CC[C@H]1[C@@H](O)C2C3CC[C@H]([C@H](C)CC(F)(F)C(=O)O)[C@@]3(C)CCC2[C@@]2(C)CC[C@@H](O)C[C@@H]12 (stereo partly drawn) [Compound 10, 3α,7α-Dihydroxy-6α-ethyl-23,23-gemdifluoro-5β-cholan-24-oic acid] | 16 µM (≈ 7.31 µg/mL) | 8.5 mM | 1.4 | 66% | 102% | 600 nM | 200 ± 40 nM | 128 ± 4% | 7100 nM | 143% | 1.1 | 3.7 | 125 ± 1% | 1600 ± 200 nM | 103 ± 1% | 340 ± 40 nM | 
3 | CC[C@H]1[C@@H](O)C2C3CC[C@H]([C@H](C)CCc4noc(=O)[nH]4)[C@@]3(C)[C@@H](O)CC2[C@@]2(C)CC[C@@H](O)C[C@@H]12 (stereo partly drawn) [Compound 11, 3α,7α,12α-trihydroxy-6α-ethyl-24-nor-5β-23([1,2,4]-oxadiazole-3-one-5yl)-cholane] | 392 µM (≈ 187 µg/mL) | 5 mM | 1.6 | 84% | 108% | 1400 nM | 1000 nM | 140% | 7700 nM | 100% | 5.94 | 7.0 | 105% | 2000 nM | 96 ± 19% | 2700 ± 1800 nM | 
4 | CC[C@H]1[C@@H](O)C2C3CC[C@H]([C@H](C)CCc4nn[nH]n4)[C@@]3(C)[C@@H](O)CC2[C@@]2(C)CC[C@@H](O)C[C@@H]12 (stereo partly drawn) [Compound 12, 3α,7α,12α-Trihydroxy-6α-ethyl-23-(tetrazol-5-yl)-24-nor-5β-cholane] | 517 µM (≈ 238 µg/mL) | 5 mM | 1.5 | 83% | 105% | 840 nM | 1700 ± 600 nM | 125 ± 15% | 12700 nM | 93% | 5.59 | 6.6 | 104% | 4000 nM | 101 ± 1.4% | 710 ± 80 nM | 
5 | CC[C@@H]1C2C[C@H](O)CC[C@]2(C)C2CC[C@@]3(C)C(CC[C@@H]3[C@H](C)Cc3nc(=O)o[nH]3)C2[C@@H]1O (stereo partly shown) [Compound 14] | 2020 µM (≈ 904 µg/mL) | 10 mM | 1.9 | 99% | 111% | 900 nM | 75 ± 10 nM | 165 ± 15% | 460 nM | 264% | 5 | 5.0 | 110 ± 2% | 1600 ± 300 nM | 107 ± 1% | 480 ± 300 nM | 
6 | CC[C@H]1[C@@H](O)[C@@H]2[C@H](CC[C@]3(C)[C@@H]([C@H](C)CCc4nn[nH]n4)[C@@H](O)C[C@@H]23)[C@@]2(C)CC[C@@H](O)C[C@@H]12 [Compound 17, 3α,7α,16β-Trihydroxy-6α-ethyl-23-(tetrazol-5-yl)-24-nor-5β-cholane] | 5 µM (≈ 2.3 µg/mL) | 11 mM | 2.0 | 90% | 101% | 800 nM | 450 ± 50 nM | 138 ± 9% | 2300 nM | 171% | 5.71 | 9.0 | 119 ± 2% | 1200 ± 100 nM | 103 ± 2% | 100 ± 40 nM | 
7 | CC[C@H]1[C@@H](O)C2C3CC[C@H]([C@H](C)CC(=O)NCCO)[C@@]3(C)CCC2[C@@]2(C)CC[C@@H](O)C[C@@H]12 (stereo partly drawn) [Compound 19, 3α,7α-Dihydroxy-6α-ethyl-N-(2-hydroxyethyl)-24-nor-5β-cholan-23-amide] | 2150 µM (≈ 967 µg/mL) | 5 mM | 1.0 | 51% |  | 80 nM | 3000 ± 1000 nM | 137 ± 2% | 10000 nM |  | 14.3 | 1.3 |  | 160 ± 10 nM |  | 20 ± 8 nM | Emax (mTGR5; CHO): 106%; Emax [4]: 122%; Emax (TGR5 [6]; NCI-H716, 1 h): 128 ± 1%; Emax (TGR5 [7]; CHO): 105 ± 2%
